Measurements from patent publication US20230391772A1, “METHODS AND COMPOSITIONS FOR TARGETED PROTEIN DEGRADATION” (Ranok Therapeutics (Hangzhou) Co. Ltd., priority 2020, published 2023).
pEC50, pIC50: −log10 of the molar value.

Assays:
[1] = target: KRAS(G12C) (Homo sapiens, UniProt P01116, G12C); assay: KRAS(G12C)/SOS1 homogeneous time-resolved fluorescence (HTRF) assay; design: purchased Cisbio 63ADK000CB16PEG; conditions: absence of GTP, 4° C. for 3 hr, read-out: KRAS (G12C) binding
Outline: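 HTRF kit measuring compound-induced block of KRAS(G12C)-SOS1 interaction without GTP. Compounds tested as 3-fold serial dilutions down to 1.02 nM, incubated with reaction components 3 h at 4 °C in sealed plates before fluorescence read.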

[2] = target: T1, HSP90a protein (Homo sapiens, UniProt P07900); assay: HSP90α-binding fluorescent polarization (FP) assay, BODIPY-labeled RNK04010 probe; conditions: FP competition with RNK04010 (BODIPY-labeled), 5 nM, 300 min at 25° C.
T1 construct: purchased BPS Bioscience 50298
Outline: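 Competitive FP with N-terminal HSP90a; probe at 5 nM final, either BODIPY-labeled triazolone RNK04010 or FITC-geldanamycin. Test compounds as 2.5-fold dilutions from 20 μM to 5.2 nM. Incubated at 25 °C for 300 min (RNK04010) or 120 min (FITC-geldanamycin) before reading polarization.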

[3] = test system: MIA PaCa-2 human pancreatic carcinoma; assay: MIA PaCa-2 CCK-8 proliferation assay; assay type: cell-based; conditions: Homo sapiens, MIA PaCa-2, 72 h, MIA PaCa-2 cells
Outline: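 Percent inhibition derived from CCK-8 optical signal, normalised between DMSO-only cells (0%) and cell-free medium containing DMSO as background. Cells: MIA PaCa-2 carrying 2 KRAS(G12C) copies; NCI-H358, NCI-H23 carrying 1 copy apiece. Concentrations spanned 1.02 nM–20 μM in threefold increments.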

KRAS(G12C), sequence (P01116 1-188 isoform P01116-2 G12C): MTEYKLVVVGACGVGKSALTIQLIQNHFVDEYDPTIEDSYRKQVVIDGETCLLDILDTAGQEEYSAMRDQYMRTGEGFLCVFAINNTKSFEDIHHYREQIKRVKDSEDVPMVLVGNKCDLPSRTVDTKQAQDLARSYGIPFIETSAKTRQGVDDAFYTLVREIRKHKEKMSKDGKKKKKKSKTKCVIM

Compound	pIC50 [1]	pIC50 [2]	pEC50 [3]
C=CC(=O)N1CCN(c2nc(OC[C@@H]3CN(C(=O)C4CCN(Cc5ccc(-n6c(C(N)=O)nnc6-c6cc(C(C)C)c(O)cc6O)cc5)CC4)CCN3C)nc3c2CCN(c2cccc4cccc(Cl)c24)C3)C[C@@H]1CC#N [Compound 197, 4-(4-((4-((S)-3-(((4-((S)-4-acryloyl-3-(cyanomethyl)piperazin-1-yl)-7-(8-chloronaphthalen-1-yl)-5,6,7,8-tetrahydropyrido[3,4-d]pyrimidin-2-yl)oxy)methyl)-4-methylpiperazine-1-carbonyl)piperidin-1-yl)methyl)phenyl)-5-(2,4-dihydroxy-5-isopropylphenyl)-4H-1,2,4-triazole-3-carboxamide, trifluoroacetic acid]	< 6.00	> 7.00	< 6.00
C=CC(=O)N1CCN(c2nc(OC[C@@H]3C[C@@H](NCc4ccc(-n5c(O)nnc5-c5cc(C(C)C)c(O)cc5O)cc4)CN3C)nc3c2CCN(c2cccc4cccc(Cl)c24)C3)C[C@@H]1CC#N [Compound 215, 2-((S)-1-acryloyl-4-(7-(8-chloronaphthalen-1-yl)-2-(((2S,4R)-4-((4-(3-(2,4-dihydroxy-5-isopropylphenyl)-5-hydroxy-4H-1,2,4-triazol-4-yl)benzyl)amino)-1-methylpyrrolidin-2-yl)methoxy)-5,6,7,8-tetrahydropyrido[3,4-d]pyrimidin-4-yl)piperazin-2-yl)acetonitrile]	6.00 to 7.00	> 7.00	6.00 to 7.00
C=CC(=O)N1CCN(c2nc(OC[C@@H]3CC[C@H](C(=O)N4CCN(Cc5ccc(-n6c(O)nnc6-c6cc(C(C)C)c(O)cc6O)cc5)CC4)N3C)nc3c2CCN(c2cccc4cccc(Cl)c24)C3)C[C@@H]1CC#N [Compound 324, 2-[(2S)-4-[7-(8-chloronaphthalen-1-yl)-2-{[(2S,5R)-5-[4-({4-[3-(2,4-dihydroxy-5-isopropylphenyl)-5-hydroxy-1,2,4-triazol-4-yl]phenyl}methyl)piperazine-1-carbonyl]-1-methylpyrrolidin-2-yl]methoxy}-5H,6H,8H-pyrido[3,4-d]pyrimidin-4-yl]-1-(prop-2-enoyl)piperazin-2-yl]acetonitrile]	6.00 to 7.00	> 7.00	6.00 to 7.00
C=C(F)C(=O)N1CCN(c2nc(OCCN3CCN(C(=O)C4CCN(Cc5ccc(-n6c(C(=O)NCC(F)(F)F)nnc6-c6cc(C(C)C)c(O)cc6O)cc5)CC4)CC3)nc3c2CCN(c2cccc4cccc(Cl)c24)C3)C[C@@H]1CC#N [Compound 207, (S)-4-(4-((4-(4-(2-((7-(8-chloronaphthalen-1-yl)-4-(3-(cyanomethyl)-4-(2-fluoroacryloyl)piperazin-1-yl)-5,6,7,8-tetrahydropyrido[3,4-d]pyrimidin-2-yl)oxy)ethyl)piperazine-1-carbonyl)piperidin-1-yl)methyl)phenyl)-5-(2,4-dihydroxy-5-isopropylphenyl)-N-(2,2,2-trifluoroethyl)-4H-1,2,4-triazole-3-carboxamide]	6.00 to 7.00	> 7.00	> 7.00
C=CC(=O)N1CCN(c2nc(OC[C@@H]3CC[C@H](C(=O)N4CCN(C(=O)c5ccc(-n6c(C(=O)NCC(F)(F)F)nnc6-c6cc(C(C)C)c(O)cc6O)cc5)CC4)N3C)nc3c2CCN(c2cccc4cccc(Cl)c24)C3)C[C@@H]1CC#N [Compound 331, 4-(4-{4-[(2R,5S)-5-({[7-(8-chloronaphthalen-1-yl)-4-[(3S)-3-(cyanomethyl)-4-(prop-2-enoyl)piperazin-1-yl]-5H,6H,8H-pyrido[3,4-d]pyrimidin-2-yl]oxy}methyl)-1-methylpyrrolidine-2-carbonyl]piperazine-1-carbonyl}phenyl)-5-(2,4-dihydroxy-5-isopropylphenyl)-N-(2,2,2-trifluoroethyl)-1,2,4-triazole-3-carboxamide]	> 7.00	> 7.00	> 7.00
C=CC(=O)N1CCN(c2nc(OCCN3CCN(C(=O)C4CCN(Cc5ccc(-n6c(C(=O)NCC(F)(F)F)nnc6-c6cc(C)c(O)cc6O)cc5)CC4)CC3)nc3c2CCN(c2cccc4cccc(Cl)c24)C3)C[C@@H]1CC#N [Compound 222, (S)-4-(4-((4-(4-(2-((4-(4-acryloyl-3-(cyanomethyl)piperazin-1-yl)-7-(8-chloronaphthalen-1-yl)-5,6,7,8-tetrahydropyrido[3,4-d]pyrimidin-2-yl)oxy)ethyl)piperazine-1-carbonyl)piperidin-1-yl)methyl)phenyl)-5-(2,4-dihydroxy-5-methylphenyl)-N-(2,2,2-trifluoroethyl)-4H-1,2,4-triazole-3-carboxamide]	6.00 to 7.00	> 7.00	6.00 to 7.00

Other lines, results leading:

pIC50 [1]	pIC50 [2]	pEC50 [3]	Compound
> 7.00	> 7.00	6.00 to 7.00	C=CC(=O)N1CCN(c2nc(OC[C@@H]3C[C@H](N4CCC(C(=O)N5CCN(Cc6ccc(-n7c(O)nnc7-c7cc(C(C)C)c(O)cc7O)cc6)CC5)CC4)CN3C)nc3c2CCN(c2cccc4cccc(Cl)c24)C3)C[C@@H]1CC#N [Compound 317, 2-[(2S)-4-[7-(8-chloronaphthalen-1-yl)-2-{[(2S,4S)-4-{4-[4-({4-[3-(2,4-dihydroxy-5-isopropylphenyl)-5-hydroxy-1,2,4-triazol-4-yl]phenyl}methyl)piperazine-1-carbonyl]piperidin-1-yl}-1-methylpyrrolidin-2yl]methoxy}-5H,6H,8H-pyrido[3,4-d]pyrimidin-4-yl]-1-(prop-2-enoyl)piperazin-2-yl]acetonitrile]
> 7.00	> 7.00	> 7.00	C=CC(=O)N1CCN(c2nc(OC[C@@H]3CC[C@H](CN4CCN(C(=O)C5CCN(Cc6ccc(-n7c(O)nnc7-c7cc(C(C)C)c(O)cc7O)cc6)CC5)CC4)N3C)nc3c2CCN(c2cccc4cccc(Cl)c24)C3)C[C@@H]1CC#N [Compound 313, 2-[(2S)-4-[7-(8-chloronaphthalen-1-yl)-2-{[(2S,5R)-5-({4-[1-({4-[3-(2,4-dihydroxy-5-isopropylphenyl)-5-hydroxy-1,2,4-triazol-4-yl]phenyl}methyl)piperidine-4-carbonyl]piperazin-1-yl}methyl)-1-methylpyrrolidin-2-yl]methoxy}-5H,6H,8H-pyrido [3,4-d]pyrimidin-4-yl]-1-(prop-2-enoyl)piperazin-2-yl]acetonitrile]
> 7.00	> 7.00	> 7.00	C=CC(=O)N1CCN(c2nc(OC[C@@H]3C[C@H](N4CCC5(CCN(C(=O)C6CCN(Cc7ccc(-n8c(C(=O)NCC(F)(F)F)nnc8-c8cc(C(C)C)c(O)cc8O)cc7)CC6)CC5)CC4)CN3C)nc3c2CCN(c2cccc4cccc(Cl)c24)C3)C[C@@H]1CC#N [Compound 311, 4-{4-[(4-{9-[(3S,5S)-5-({[7-(8-chloronaphthalen-1-yl)-4-[(3S)-3-(cyanomethyl)-4-(prop-2-enoyl)piperazin-1-yl]-5H,6H,8H-pyrido[3,4-d]pyrimidin-2-yl]oxy}methyl)-1-methylpyrrolidin-3-yl]-3,9-diazaspiro[5.5]undecane-3-carbonyl}piperidin-1-yl)methyl]phenyl}-5-(2,4-dihydroxy-5-isopropylphenyl)-N-(2,2,2-trifluoroethyl)-1,2,4-triazole-3-carboxamide]
> 7.00	> 7.00	6.00 to 7.00	C=CC(=O)N1CCN(c2nc(OC[C@H]3CC[C@@H](C(=O)N4CCN(C(=O)C5CCN(Cc6ccc(-n7c(O)nnc7-c7cc(C(C)C)c(O)cc7O)cc6)CC5)CC4)N3C)nc3c2CCN(c2cccc4cccc(Cl)c24)C3)C[C@@H]1CC#N [Compound 342, 2-[(2S)-4-[7-(8-chloronaphthalen-1-yl)-2-{[(2R,5S)-5-{4-[1-({4-[3-(2,4-dihydroxy-5-isopropylphenyl)-5-hydroxy-1,2,4-triazol-4-yl]phenyl}methyl)piperidine-4-carbonyl]piperazine-1-carbonyl}-1-methylpyrrolidin-2-yl]methoxy}-5H,6H,8H-pyri-do[3,4-d]pyrimidin-4-yl]-1-(prop-2-enoyl)piperazin-2-yl]acetonitrile]
> 7.00	> 7.00	> 7.00	C=CC(=O)N1CCN(c2nc(OC[C@@H]3C[C@@H](NC(=O)C4CCN(Cc5ccc(-n6c(C(=O)NCC(F)(F)F)nnc6-c6cc(C(C)C)c(O)cc6O)cc5)CC4)CN3C)nc3c2CCN(c2cccc4cccc(Cl)c24)C3)C[C@@H]1CC#N [Compound 200, N-((3R,5S)-5-(((4-((S)-4-acryloyl-3-(cyanomethyl)piperazin-1-yl)-7-(8-chloronaphthalen-1-yl)-5,6,7,8-tetrahydropyrido[3,4-d]pyrimidin-2-yl)oxy)methyl)-1-methylpyrrolidin-3-yl)-1-(4-(3-(2,4-dihydroxy-5-isopropylphenyl)-5-((2,2,2-trifluoroethyl)carbamoyl)-4H-1,2,4-triazol-4-yl)benzyl)piperidine-4-carboxamide]
